Here are results for five compounds from patent US9399194B2, “Methods for treating a liquid using draw solutions” (priority 2014, dated 2016).

Where “and” joins values, the source holds several entries; their conditions need not be identical. Equal entries are not always repeated.

Data set [1] is described as follows: Viscosity and density of the CHP-H+ draw solution. The data set is classed as physicochemical. As for the experimental part: (§1) House deionized (DI) water was used in all experiments. CHP was obtained from Alfa Aesar and used as received. All equipment was used in accordance with manufacturer specifications unless stated otherwise. Freezing point depression osmometry was performed using an Advanced Instruments, Inc. Model 3250 Osmometer. Viscosity measurements were made using the falling bob method with a Cambridge Applied Systems VL4100 viscometer.
DI water (229.7 g) and CHP (221.2 g, 1.32 mol) were placed in a bottle equipped with a gas diffuser and exposed to a steady stream of carbon dioxide for 3 hours while being stirred with a magnetic stir bar. The resulting product was a clear homogeneous solution with a mass of 491.4 g, a solution viscosity of 44.0 cP at 15.0° C., and a density of 1.09 g/ml at 21° C. After exposure to the carbon dioxide, the solution contained CHP-H^+ (i.e., CHP in its polar form).

Data set [2] is described as follows: Freezing point depression osmometry: maximum concentration and osmotic pressure. The data set is classed as physicochemical. The settings on record: for maximum osmotic pressure (projected): full/high concentration, projected from dilute solution freezing point data. As for the experimental part: as §1
The diamond symbols indicate molality of amine and ammonium ions. The square symbols indicate the total species molality including amines, ammonium ions, and carbonate species. […] There is strong evidence that as osmotic pressures increase, there are diminishing returns in terms of kinetics for osmotic flux. For any osmotic pressure over 370 atm, the osmotic pressure of a saturated NaCl solution is likely to be less important than solute and solution properties like diffusion and viscosity.
The maximum osmotic pressures of different tertiary amines were determined by osmometry.

Data set [3] is described as follows: Forward osmosis flux experiments (FO mode) against pure water. The settings on record: about 30 wt % CHP-H+ or 0.9 mol/kg NaCl against pure water, identical membranes. The procedure:
All flux experiments were conducted in “FO mode” with the membrane's active layer facing the feed solution. The process was allowed 1-5 minutes to equilibrate and the average of the next 10 minutes was reported as the “initial flux.”
Using identical membranes and test conditions, the water flux for CHP-H^+ was 10 kg/m^2 hr compared with 10 kg/m^2 hr for the NaCl solution.

Data set [4] is described as follows: Draw solution degassing monitored by freezing point osmometry. The data set is classed as physicochemical. The settings on record: for temperature needed to degas: ambient atmospheric pressure, comparable kinetics. From the text: To determine the relative performance of CHP and DMCA at different temperatures, draw solutions containing CHP or DMCA were recirculated through a segment of a heat exchanger featuring a high surface area honeycomb composition design with a temperature regulated fluid recirculated through the other path. Concentration data was collected with a freezing point osmometer by conventional techniques. Osmolality is an excellent predictor for the pressure needed to remove dissolved solids by filtration. Generally, 1 Osm/Kg corresponds to about 24.5 atm.
Upon addition of one atm of CO2 to the draw solution of Example 1, the oily, nonpolar CHP readily produced the corresponding polar ammonium bicarbonate acid-base salt. To test the degassing process, CHP-ammonium bicarbonate solutions were recirculated through a high surface area heat exchanger with a gear pump while the other loop of the heat exchanger was attached to a recirculating heat bath that was set to the desired temperature. The experiment progression was monitored with a freezing point osmometry. The degassing process was intended to reduce the solution osmotic pressure, reducing it to nothing or minimizing it for a low pressure RO treatment. The progress of the degassing reaction was measured by osmometry, which corresponds to osmotic pressure and can be rapidly obtained. For comparison, a draw solution including DMCA-H^+ was also investigated. In the case of DMCA at full concentration, it will start degassing at a temperature as low as 25° C., requiring viscosity measurements to be made at 15° C. However, DMCA requires nearly reflux conditions to fully remove the CO2.

The conditions of data set [5]: at 25° C.; cited from earlier work.
The conditions of data set [6]: saturated NaCl solution; cited from earlier work.

Broadly, the density is the mass of a sample divided by its volume.

In data set [1] (draw solution of Example 1, at 15.0° C.), `C1CCC(N2CCCCC2)CC1` [CHP-H^+] gave a solution viscosity of 44.0 cP. In data set [1] (draw solution of Example 1, at 21° C.), the density came to 1.09 g/mL. Besides, the “maximum osmotic pressure (projected)” value in data set [2] is listed as “greater than 500 atm”. The “water flux (initial flux)” value in data set [3] came out at 10 kg/m^2 hr. In addition, the osmolality after degassing in data set [4] (70° C., after extended treatment) came to 0.2 Osm/Kg; in data set [4] (70° C., within 3 hours), 0.6 Osm/Kg.
Take `CN(C)C1CCCCC1` [DMCA, N,N-dimethylcyclohexylamine]: in data set [4], the “temperature needed to degas” value is “about 95 °C”. The “temperature at which degassing starts” value in data set [4] (full concentration) was determined as 25 °C. For the same compound, the vapor pressure entry in data set [5] is given as “about 2.2 mm Hg”.
With `[Cl-].[Na+]` [NaCl, reference compound], the “water flux (initial flux)” value in data set [3] stood at 10 kg/m^2 hr. The osmotic pressure in data set [6] is recorded as 370 atm.
In the case of `CN(C)C1CCCCC1.O=C(O)O` [DMCA-H^+, dimethylcyclohexylammonium bicarbonate], in data set [2], the “maximum osmotic pressure (projected)” value is on record as roughly 835 atm. Also, the osmolality after degassing in data set [4] (70° C., after 4-6 hours) is given as 2.4 Osm/Kg; in data set [4] (95° C., after 6.5 hours), 0.2 Osm/Kg.
In the case of `C1CCC(N2CCCCC2)CC1` [CHP, 1-cyclohexylpiperidine], in data set [2], the “amine:carbonic acid ratio” value is given as 1.00; the “maximum osmotic pressure (projected)” value was 536 atm and > 500 atm. In addition, in data set [2] (by osmometry, FIG. 4), the maximum osmotic pressure entry is “greater than 250 atm”. In addition, the “temperature needed to degas” value in data set [4] was “about 70 °C”. Besides, the vapor pressure entry in data set [5] is “about 0.1 mm Hg”.
